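Tested at 5 concentrations; 48 h exposure; 96-well plates; endpoints linearly interpolated, else capped at highest concentration. Definition used: TGI = concentration required for complete inhibition of growth.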
Columns and labels:
Experiment in all cases: growth of human tumour cells (NCI), 48 h
OVCAR-5 ovarian = tested on: OVCAR-5 ovarian
UO-31 renal = tested on: UO-31 renal
A549 NSCLC = tested on: A549 NSCLC
U251 CNS = tested on: U251 CNS
NCI-H522 lung = tested on: NCI-H522 lung
CCRF-CEM leukemia = tested on: CCRF-CEM leukemia
A498 renal = tested on: A498 renal
SNB-78 CNS = tested on: SNB-78 CNS
HCT-116 colon = tested on: HCT-116 colon
SNB-19 CNS = tested on: SNB-19 CNS
RXF 393 renal = tested on: RXF 393 renal
IGROV1 ovarian = tested on: IGROV1 ovarian
NCI-H460 lung = tested on: NCI-H460 lung
UACC-257 melanoma = tested on: UACC-257 melanoma
HOP-92 NSCLC = tested on: HOP-92 NSCLC
HL-60(TB) leukemia = tested on: HL-60(TB) leukemia
SK-OV-3 ovarian = tested on: SK-OV-3 ovarian
SR leukemia = tested on: SR leukemia
HT29 colon = tested on: HT29 colon
KM12 colon = tested on: KM12 colon
DMS 114 small cell lung = tested on: DMS 114 small cell lung
NCI-H226 lung = tested on: NCI-H226 lung
HOP-62 NSCLC = tested on: HOP-62 NSCLC
ACHN renal = tested on: ACHN renal
SF-295 CNS = tested on: SF-295 CNS
DMS 273 small cell lung = tested on: DMS 273 small cell lung
MOLT-4 leukemia = tested on: MOLT-4 leukemia
NCI-H23 lung = tested on: NCI-H23 lung
SK-MEL-28 melanoma = tested on: SK-MEL-28 melanoma
OVCAR-8 ovarian = tested on: OVCAR-8 ovarian
TK-10 renal = tested on: TK-10 renal
EKVX NSCLC = tested on: EKVX NSCLC
M14 melanoma = tested on: M14 melanoma

Measured: TGI

CCN(CC)CSc1nc2ccccc2[nH]1
> 100 µM: OVCAR-5 ovarian | UO-31 renal | A549 NSCLC | U251 CNS | NCI-H522 lung | CCRF-CEM leukemia | A498 renal | SNB-78 CNS | HCT-116 colon | SNB-19 CNS | RXF 393 renal | IGROV1 ovarian | NCI-H460 lung | UACC-257 melanoma | HOP-92 NSCLC | HL-60(TB) leukemia | SK-OV-3 ovarian | SR leukemia | HT29 colon | KM12 colon | DMS 114 small cell lung | NCI-H226 lung | HOP-62 NSCLC | ACHN renal | SF-295 CNS | DMS 273 small cell lung | MOLT-4 leukemia | NCI-H23 lung | SK-MEL-28 melanoma | OVCAR-8 ovarian | TK-10 renal | EKVX NSCLC | M14 melanoma

Source: PubChem BioAssay (NCI)
